Experimental findings from publication PMC12409578 (ACS Omega, 2025) are described below.

Entries after “also recorded” stand apart in the source; their conditions may differ.

One data set concerns the target T1, AChE (from electric eel) (Electrophorus electricus, UniProt O42275).
T1 construct: AChE (from electric eel); from tissue
Description: biochemical. The settings on record: for Ki: Lineweaver–Burk plots, mean ± SEM, read-out: AChE K I; for IC50: electric eel AChE, ATChI substrate, 37 °C, pH 8.0; for selectivity for AChE than for BChE (in words): from K I values / selectivity index. The format is biochemical.

A further data set deals with T2, BChE (from equine serum) (Equus caballus, UniProt P81908).
T2 construct: BChE (from equine serum); from tissue; host or cells: equine serum
Description: biochemical. The settings on record: for Ki: Lineweaver–Burk plots, mean ± SEM, read-out: BChE K I; for IC50: equine serum BChE, BChI substrate, 37 °C, pH 8.0.

The nature of data set [1]: MTT cytotoxicity test on HUVEC cell line. The format is cell-based. The conditions noted are these: human, HUVEC cells (healthy cell line). As to the method: Cell culture studies were conducted using the previously mentioned method , and HUVEC (healthy cell line) was grown for this study. After the cells were grown, the maximum dose accepted as 100 μM drug concentration was applied to the cell line for all compounds, and cell viability was determined. , The results were illustrated in Table .
The cytotoxic effect of all compounds by MTT analysis was performed to determine the proliferation on the HUVEC cell line. The MTT [3-(4,5-dimethyl-2-thiazol)-2,5-diphenyl-2H-tetrazolium bromide] cytotoxicity assay was employed according to previous studies with minor modifications. −
In general terms: Formazan colour is commonly taken as a measure of viable cells.

T1 sequence (O42275 24-633): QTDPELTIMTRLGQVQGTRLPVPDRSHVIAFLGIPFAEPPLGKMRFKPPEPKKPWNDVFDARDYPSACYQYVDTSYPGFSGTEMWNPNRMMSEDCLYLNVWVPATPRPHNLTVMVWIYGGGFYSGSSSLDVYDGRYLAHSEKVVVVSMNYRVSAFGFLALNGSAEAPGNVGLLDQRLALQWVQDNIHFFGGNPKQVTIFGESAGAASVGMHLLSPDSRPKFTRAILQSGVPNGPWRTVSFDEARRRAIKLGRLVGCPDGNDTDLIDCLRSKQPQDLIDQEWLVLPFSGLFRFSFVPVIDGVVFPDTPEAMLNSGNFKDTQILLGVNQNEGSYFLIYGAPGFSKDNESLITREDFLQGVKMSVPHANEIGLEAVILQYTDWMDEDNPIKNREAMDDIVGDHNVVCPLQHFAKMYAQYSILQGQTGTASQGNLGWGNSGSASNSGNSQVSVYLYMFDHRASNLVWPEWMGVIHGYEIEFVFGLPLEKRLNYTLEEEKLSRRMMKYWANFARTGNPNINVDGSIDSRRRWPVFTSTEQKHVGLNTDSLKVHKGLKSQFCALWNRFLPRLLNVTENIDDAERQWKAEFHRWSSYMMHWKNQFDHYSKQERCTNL
T2 sequence (P81908 whole entry): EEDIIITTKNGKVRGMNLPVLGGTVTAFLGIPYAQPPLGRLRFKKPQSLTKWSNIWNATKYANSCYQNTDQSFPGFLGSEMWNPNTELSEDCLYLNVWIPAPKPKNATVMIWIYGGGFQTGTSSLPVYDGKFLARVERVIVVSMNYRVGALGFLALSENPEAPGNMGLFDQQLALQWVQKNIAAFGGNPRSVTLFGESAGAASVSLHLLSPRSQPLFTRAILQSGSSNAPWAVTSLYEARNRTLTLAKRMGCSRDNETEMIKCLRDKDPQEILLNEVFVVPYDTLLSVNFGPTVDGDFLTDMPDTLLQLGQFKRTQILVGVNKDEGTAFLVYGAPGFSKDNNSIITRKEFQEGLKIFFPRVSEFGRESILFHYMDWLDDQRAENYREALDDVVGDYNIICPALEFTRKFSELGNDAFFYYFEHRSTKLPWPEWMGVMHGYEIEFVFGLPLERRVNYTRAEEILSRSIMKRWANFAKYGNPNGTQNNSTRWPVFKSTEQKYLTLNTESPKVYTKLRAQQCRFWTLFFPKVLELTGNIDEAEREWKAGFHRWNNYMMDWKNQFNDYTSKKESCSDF

Regarding `COc1ccc(C2=NN(c3nc(-c4ccc(F)cc4)cs3)C(c3ccc(C)s3)C2)cc1OC` (stereo not drawn) [Compound 3e, 2-[3-(3,4-Dimethoxyphenyl)-5-(5-methylthiophen-2-yl)-4,5-dihydro-1H-pyrazol-1-yl]-4-(4-fluorophenyl)thiazole], on AChE (from electric eel), the “SI (selectivity index) = K I (AChE)/ K I (BChE)” value (from here on “SI (selectivity index) = K I”) was found to be 0.082, the Ki amounted to 0.143 ± 0.084 µM, half-maximal inhibition (IC50) was put at 0.385 µM and the “selectivity for AChE than for BChE (in words)” value (shortened to “selectivity for AChE than”) was “more significant selectivity”. Further, at BChE (from equine serum), the Ki was 1.72 ± 0.15 µM and half-maximal inhibition (IC50) required 3.32 µM. The viability at 24 h, 100 µM in data set [1] was found to be 118%.

On to `COc1ccc(C2=NN(c3nc(-c4cccc([N+](=O)[O-])c4)cs3)C(c3ccc(C)s3)C2)cc1OC` (stereo not drawn) [Compound 3j, 2-[3-(3,4-Dimethoxyphenyl)-5-(5-methylthiophen-2-yl)-4,5-dihydro-1H-pyrazol-1-yl]-4-(3-nitrophenyl)thiazole], for which, on AChE (from electric eel), the “SI (selectivity index) = K I” value was found to be 0.178, the Ki was 0.423 ± 0.023 µM, the concentration for half-maximal inhibition (IC50) was found to be 4.03 µM and the “selectivity for AChE than” value is recorded as “more significant selectivity”. On BChE (from equine serum), the Ki is 2.37 ± 0.114 µM and the concentration for half-maximal inhibition (IC50) was determined as 4.92 µM. For the same molecule, the viability at 24 h, 100 µM in data set [1] came out at 102%.

Regarding `COc1ccc(C2=NN(c3nc(-c4ccc(C)cc4)cs3)C(c3ccc(C)s3)C2)cc1OC` (stereo not drawn) [Compound 3b, 2-[3-(3,4-Dimethoxyphenyl)-5-(5-methylthiophen-2-yl)-4,5-dihydro-1H-pyrazol-1-yl]-4-(4-methylphenyl)thiazole], on AChE (from electric eel), the “SI (selectivity index) = K I” value is recorded as 0.361, the Ki stood at 0.804 ± 0.062 µM, the IC50 came to 4.01 µM and the “selectivity for AChE than” value is “more significant selectivity”. Further, on BChE (from equine serum), the Ki is 2.22 ± 0.132 µM and inhibition was half-maximal at 4.15 µM (IC50). Besides, the viability at 24 h, 100 µM in data set [1] came to 133%.

In the case of `COc1ccc(C2=NN(c3nc(-c4ccc(C#N)cc4)cs3)C(c3ccc(C)s3)C2)cc1OC` (stereo not drawn) [Compound 3g, 2-[3-(3,4-Dimethoxyphenyl)-5-(5-methylthiophen-2-yl)-4,5-dihydro-1H-pyrazol-1-yl]-4-(4-cyanophenyl)thiazole], at AChE (from electric eel), the “SI (selectivity index) = K I” value was 0.057, the Ki was 0.045 ± 0.002 µM, the IC50 is 0.338 µM and the “selectivity for AChE than” value is given as “highest selectivity for AChE; also recorded: more significant selectivity”. In addition, at BChE (from equine serum), the Ki came to 0.789 ± 0.056 µM and the IC50 came to 2.09 µM. For the same molecule, the viability at 24 h, 100 µM in data set [1] is 94%.

As to `COc1ccc(-c2csc(N3N=C(c4ccc(OC)c(OC)c4)CC3c3ccc(C)s3)n2)cc1` (stereo not drawn) [Compound 3c, 2-[3-(3,4-Dimethoxyphenyl)-5-(5-methylthiophen-2-yl)-4,5-dihydro-1H-pyrazol-1-yl]-4-(4-methoxyphenyl)thiazole], at AChE (from electric eel), the “SI (selectivity index) = K I” value was determined as 1.016, the Ki was 1.18 ± 0.083 µM and the concentration for half-maximal inhibition (IC50) is 4.81 µM. For the same molecule, on BChE (from equine serum), the Ki was found to be 1.16 ± 0.062 µM and inhibition was half-maximal at 3.07 µM (IC50). Further, the viability at 24 h, 100 µM in data set [1] came out at 97.2%.

As for `COc1ccc(C2=NN(c3nc(-c4ccc([N+](=O)[O-])cc4)cs3)C(c3ccc(C)s3)C2)cc1OC` (stereo not drawn) [Compound 3f, 2-[3-(3,4-Dimethoxyphenyl)-5-(5-methylthiophen-2-yl)-4,5-dihydro-1H-pyrazol-1-yl]-4-(4-nitrophenyl)thiazole], at AChE (from electric eel), the “SI (selectivity index) = K I” value was found to be 0.039, the Ki was 0.057 ± 0.003 µM, the IC50 was 0.382 µM and the “selectivity for AChE than” value is “highest selectivity for AChE; also recorded: more significant selectivity”. Further, on BChE (from equine serum), the Ki was found to be 1.46 ± 0.071 µM and the IC50 stood at 4.25 µM. Moreover, the viability at 24 h, 100 µM in data set [1] turned out to be 86%.

`COc1ccc(C2=NN(c3nc(-c4ccc(Cl)cc4)cs3)C(c3ccc(C)s3)C2)cc1OC` (stereo not drawn) [Compound 3d, 2-[3-(3,4-Dimethoxyphenyl)-5-(5-methylthiophen-2-yl)-4,5-dihydro-1H-pyrazol-1-yl]-4-(4-chlorophenyl)thiazole]: at AChE (from electric eel), the “SI (selectivity index) = K I” value is given as 0.074, the Ki came to 0.121 ± 0.007 µM, the IC50 came out at 0.523 µM and the “selectivity for AChE than” value is “more significant selectivity”. At BChE (from equine serum), the Ki amounted to 1.64 ± 0.085 µM and the 50% inhibitory concentration (IC50) was determined as 6.03 µM. The viability at 24 h, 100 µM in data set [1] stood at 126%.

Regarding `COc1ccc(C2=NN(c3nc(-c4ccc(F)cc4F)cs3)C(c3ccc(C)s3)C2)cc1OC` (stereo not drawn) [Compound 3i, 2-[3-(3,4-Dimethoxyphenyl)-5-(5-methylthiophen-2-yl)-4,5-dihydro-1H-pyrazol-1-yl]-4-(2,4-difluorophenyl)thiazole], on AChE (from electric eel), the “SI (selectivity index) = K I” value is 0.332, the Ki was determined as 0.529 ± 0.034 µM and the concentration for half-maximal inhibition (IC50) is 6.42 µM. Moreover, at BChE (from equine serum), the Ki stood at 1.59 ± 0.078 µM and 7.37 µM corresponded to half-maximal inhibition (IC50). The viability at 24 h, 100 µM in data set [1] came to 86.4%.

In the case of `COc1ccc(C2=NN(c3nc(-c4ccc(Cl)cc4Cl)cs3)C(c3ccc(C)s3)C2)cc1OC` (stereo not drawn) [Compound 3h, 2-[3-(3,4-Dimethoxyphenyl)-5-(5-methylthiophen-2-yl)-4,5-dihydro-1H-pyrazol-1-yl]-4-(2,4-dichlorophenyl)thiazole], at AChE (from electric eel), the “SI (selectivity index) = K I” value is listed as 0.655; the Ki was 1.1 ± 0.058 µM; the midpoint of inhibition, the IC50, lay at 5.46 µM. On BChE (from equine serum), the Ki is 1.69 ± 0.082 µM and the IC50 was 4.99 µM. The viability at 24 h, 100 µM in data set [1] came out at 138%.

For `COc1ccc(C2=NN(c3nc(-c4ccccc4)cs3)C(c3ccc(C)s3)C2)cc1OC` (stereo not drawn) [Compound 3a, 2-[3-(3,4-Dimethoxyphenyl)-5-(5-methylthiophen-2-yl)-4,5-dihydro-1H-pyrazol-1-yl]-4-phenylthiazole], at AChE (from electric eel), the “SI (selectivity index) = K I” value came to 0.660, the Ki came to 0.886 ± 0.054 µM and the 50% inhibitory concentration (IC50) is 2.85 µM. On BChE (from equine serum), the Ki is 1.35 ± 0.083 µM and the IC50 is 4.3 µM. In addition, the viability at 24 h, 100 µM in data set [1] worked out at 99.2%.

In general, IC50 refers to the concentration at which inhibition is half-maximal. The viability is a read-out of living cells in per cent, often relative to untreated cells.
